In patent US20230226066A1, “COMPOUNDS FOR THE TREATMENT OF VIRAL INFECTIONS” (MERCK PATENT GMBH, priority 2020, published 2023):

Assays:
Assay type in all cases: cell-based
SARS-CoV2/ZG/297-20 = conditions: MOI 0.05; 120 hours observation; Compound 1 at 1-81 μM, Compound 2 at 9-81 μM; compared to uninfected and infected control cells; FIGS. 1 and 2
[1] = test system: Dengue virus serotype 2 (DENV-2); test: Antiviral testing against Dengue virus serotype 2 in Vero cells (CPE inhibition assay, immunostaining); conditions: DENV2, Vero, read-out: half maximal effective concentration (EC50), viral replication
Method: (§1) The antiviral effect of Compounds is evaluated against Dengue virus serotype 2 (DENV-2) using cytopathic effect (CPE) inhibition assay. Cytotoxic effect was assessed in parallel.
(§2) Five-fold serial dilutions of Compound 2 were prepared at a starting concentration of 50 μM and added in triplicate to 1.00E+04 Vero cells seeded in conical 96-well plates one day prior and incubated at 37° C. and 5% CO2 for one-hour. During the incubation time, viruses were thawed and inoculum prepared in infection medium. Stock and inoculum were maintained in wet ice at all time. Virus was then added to the Compound 2 dilutions/cells (1:1) and plates were incubated at 37° C. and 5% CO2 for 3-5 days.
Cells were immunostained. Then, medium was removed, cells were washed with PBS, fixed with cold 80%/20% (v/v) ethanol/methanol and incubated at −20° C. for 20 minutes. After removal of fixative the plates were air-dried, washed and stained with specific Ab #1, washed and stained with Ab #2-HRP conjugated. Then, cells were washed, 3,3′,5,5′-tetramethylbenzidine (TMB) substrate was added followed by addition of stop solution. The supernatant was transferred to a clean plate and signal read at 450 nm.

[2] = Cytotoxic effect on Vero cells, assessed in parallel; conditions: African green monkey, FIG. 5, read-out: half maximal cytotoxic concentration (CC50), viability of Vero cells
Method: as §1, §2

Row | Structure (SMILES) | confluence of Calu-3 cells infected with SARS-CoV-2 (SARS-CoV2/ZG/297-20) | EC50 [1] | CC50 [2]
1 | Nc1nn2cc(F)cnc2c1C(=O)Nc1cncc(F)c1N1CCC(C(=O)N2CCN(C3COC3)CC2)CC1 [Compound 1, 2-Amino-6-fluoro-pyrazolo[1,5-a]pyrimidine-3-carboxylic acid [5′-fluoro-4-(4-oxetan-3-yl-piperazine-1-carbonyl)-3,4,5,6-tetrahydro-2H-[1,4′]bipyridinyl-3′-yl]-amide] | significant improvement of the confluence of the cells | – | –
2 | Cn1cncc1-c1c(F)cncc1NC(=O)c1c(N)nn2cc(F)cnc12 [Compound 2, 2-Amino-6-fluoro-N-[5-fluoro-4-(1-methyl-1H-imidazol-5-yl)pyridin-3-yl]pyrazolo [1,5-a]pyrimidine-3-carboxamide] | significant improvement of the confluence of the cells | 0.46 µM | 6.8 µM
